# Test results as given in patent US10752640B2, “Compounds active towards bromodomains” (NUEVOLUTION A/S, priority 2014, dated 2020).
# pIC50: −log10 of the molar value.
# Target: BRD4 protein (Homo sapiens, UniProt O60885)
# Assay: FRET assay, half maximal inhibitory concentration (IC50)
# Assay type: binding
# Conditions: BRD4 protein 50 nM, Biotin-H4KAc4 peptide 12.5 nM; A Further List of Classification
# Procedure, shortened: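 HTRF: 50 nM BRD4 preincubated 30 min at room temperature with compound (10-fold series from 50 μM in 12.5% DMSO) in 50 mM HEPES pH 7.5, 100 mM NaCl, 0.05% CHAPS. Then 12.5 nM biotin-H4KAc4 peptide for 30 min, and anti-GST XL665 (10 nM) plus streptavidin cryptate (2.4 nM) with 0.4 M KF for 1 h. IC50 by variable-slope fit.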
row,pIC50,SMILES
1,6.30 to 6.70,"Cc1cc(O)nc2ccc(NC(=O)c3cc(N4CCOCC4)ccc3NS(C)(=O)=O)cc12 [S28, N-(2-hydroxy-4-methyl-6-quinolyl)-2-(methanesulfonamido)-5-morpholino-benzamide]"
2,< 5.00,"CN1CCN(c2ccccc2C(=O)Nc2ccc3c(c2)OCC(=O)N3C)CC1 [S7, N-(4-methyl-3-oxo-1,4-benzoxazin-7-yl)-2-(4-methylpiperazin-1-yl)benzamide]"
3,< 5.00,"CN1CCN(c2ccccc2C(=O)Nc2ccc3c(c2)CCC(=O)N3C)CC1 [S6, N-(1-methyl-2-oxo-3,4-dihydroquinolin-6-yl)-2-(4-methylpiperazin-1-yl)benzamide]"
4,> 6.70,"Cc1cc(O)nc2ccc(NC(=O)c3cc([N+](=O)[O-])ccc3N3CCCC3)cc12 [S25, N-(2-hydroxy-4-methyl-6-quinolyl)-5-nitro-2-pyrrolidin-1-yl-benzamide]"
5,6.00 to 6.30,"Cc1cc(O)nc2ccc(NC(=O)c3cc(CN4CCOCC4)cnc3N3CCC(C(N)=O)C3)cc12 (stereo not shown) [S98, 2-(3-carbamoylpyrrolidin-1-yl)-N-(2-hydroxy-4-methyl-6-quinolyl)-5-(morpholinomethyl)pyridine-3-carboxamide]"
6,< 5.00,"Cc1cc(O)nc2ccc(NC(=O)c3cc(CN4CCOCC4)cnc3N3CC(CO)OCC3C)cc12 (stereo not shown) [S115, 2-[2-(hydroxymethyl)-5-methyl-morpholin-4-yl]-N-(2-hydroxy-4-methyl-6-quinolyl)-5-(morpholinomethyl)pyridine-3-carboxamide]"
7,> 6.70,"Cc1cc(O)nc2ccc(NC(=O)c3cc(S(=O)(=O)N4CCOCC4)ccc3N3CCOCC3)cc12 [S20, N-(2-hydroxy-4-methyl-6-quinolyl)-2-morpholino-5-morpholinosulfonyl-benzamide]"
8,5.00 to 6.00,"Cc1cc(O)nc2ccc(NC(=O)c3ccccc3N3CCN(C)CC3)cc12 [S10, N-(2-hydroxy-4-methyl-6-quinolyl)-2-(4-methylpiperazin-1-yl)benzamide]"
9,> 6.70,"Cc1cc(O)nc2ccc(NC(=O)c3cc(CN4CCN(CCO)CC4)ccc3N3CCCC3)cc12 [S86, 5-[[4-(2-hydroxyethyl)piperazin-1-yl]methyl]-N-(2-hydroxy-4-methyl-6-quinolyl)-2-pyrrolidin-1-yl-benzamide]"

# Same assay, conditions: BRD4 protein 50 nM, Biotin-H4KAc4 peptide 12.5 nM; List of Classification
row,pIC50,SMILES
1,5.00 to 6.00,"Cc1ccnc(N2CCOCC2)c1C(=O)Nc1ccc2nc(O)cc(C)c2c1 [Compound-138, N-(2-hydroxy-4-methyl-6-quinolyl)-4-methyl-2-morpholino-pyridine-3-carboxamide]"
2,> 6.70,"Cc1cc(O)nc2ccc(NC(=O)c3cccnc3N3CCOCC3C)cc12 (stereo not shown) [Compound-120, N-(2-hydroxy-4-methyl-6-quinolyl)-2-(3-methylmorpholin-4-yl)pyridine-3-carboxamide]"
3,> 6.70,"Cc1cc(=O)[nH]c2ccc(NC(=O)c3cc(S(=O)(=O)N(C)C)ccc3N3CC[C@@H](F)C3)cc12 [Compound-172, (R)-5-(N,N-dimethylsulfamoyl)-2-(3-fluoropyrrolidin-1-yl)-N-(4-methyl-2-oxo-1,2-dihydroquinolin-6-yl)benzamide]"
4,6.30 to 6.70,"COCc1ccc(N2CCCC2CN(C)C)c(C(=O)Nc2ccc3nc(O)cc(C)c3c2)c1 (stereo not shown) [Compound-48, 2-(2-((dimethylamino)methyl)pyrrolidin-1-yl)-N-(2-hydroxy-4-methylquinolin-6-yl)-5-(methoxymethyl)benzamide]"
5,6.30 to 6.70,"Cc1cc(O)nc2ccc(NC(=O)c3cc(S(=O)(=O)N(C)C)ccc3N3CCC(N(C)C)C3)cc12 (stereo not shown) [Compound-16, 2-[3-(dimethylamino)pyrrolidin-1-yl]-5-(dimethylsulfamoyl)-N-(2-hydroxy-4-methyl-6-quinolyl)benzamide]"
6,6.30 to 6.70,"Cc1cc(O)nc2ccc(NC(=O)c3cnccc3N3CCCC3)cc12 [Compound-124, N-(2-hydroxy-4-methyl-6-quinolyl)-4-pyrrolidin-1-yl-pyridine-3-carboxamide]"
7,6.00 to 6.30,"O=C1CCc2cc(NC(=O)c3cc(S(=O)(=O)N4CCOCC4)ccc3N3CCCC3)ccc2N1 [Compound-100, 5-morpholinosulfonyl-N-(2-oxo-3,4-dihydro-1H-quinolin-6-yl)-2-pyrrolidin-1-yl-benzamide]"
8,> 6.70,"Cc1cc(O)nc2ccc(NC(=O)c3cccnc3N3CCCC3)cc12 [Compound-96, N-(2-hydroxy-4-methyl-6-quinolyl)-2-pyrrolidin-1-yl-pyridine-3-carboxamide]"
9,> 6.70,"Cc1cc(=O)[nH]c2ccc(NC(=O)c3cc(S(=O)(=O)N(C)C)ccc3N3CC[C@H](F)C3)cc12 [Compound-173, (S)-5-(N,N-dimethylsulfamoyl)-2-(3-fluoropyrrolidin-1-yl)-N-(4-methyl-2-oxo-1,2-dihydroquinolin-6-yl)benzamide]"
10,5.00 to 6.00,"Cc1cc(O)nc2ccc(NC(=O)c3nc(CN)ccc3N3CCCC3)cc12 [Compound-36, 6-(aminomethyl)-N-(2-hydroxy-4-methylqunolin-6-yl)-3-(pyrrolidin-1-yl)picolinamide]"
11,> 6.70,"Cc1cc(O)nc2ccc(NC(=O)c3cc(C(F)(F)F)cnc3N3CCOCC3)cc12 [Compound-139, N-(2-hydroxy-4-methyl-6-quinolyl)-2-morpholino-5-(trifluoromethyl)pyridine-3-carboxamide]"
12,> 6.70,"Cc1cc(O)nc2ccc(NC(=O)c3cc(N4CCOCC4)cnc3N3CCOCC3)cc12 [Compound-186, N-(2-hydroxy-4-methylquinolin-6-yl)-2,5-dimorpholinonicotinamide]"
13,6.00 to 6.30,"Cc1cc(O)nc2ccc(NC(=O)c3cc(CN4CCOCC4)ccc3N3CCCC3=O)cc12 [Compound-34, N-(2-hydroxy-4-methylquinolin-6-yl)-5-(morpholinomethyl)-2-(2-oxopyrrolidin-1-yl) benzamide]"
14,> 6.70,"Cc1cc(O)nc2ccc(NC(=O)c3cc(C(=O)N4CCN(C)CC4)ccc3N3CCOCC3)cc12 [Compound-10, N-(2-hydroxy-4-methyl-6-quinolyl)-5-(4-methylpiperazine-1-carbonyl)-2-morpholino-benzamide]"
15,6.30 to 6.70,"Cc1cc(O)nc2ccc(NC(=O)c3ccc(C(F)(F)F)nc3N3CCOCC3)cc12 [Compound-135, N-(2-hydroxy-4-methyl-6-quinolyl)-2-morpholino-6-(trifluoromethyl)pyridine-3-carboxamide]"
16,> 6.70,"Cc1cc(O)nc2ccc(NC(=O)c3cc(S(=O)(=O)N4CCOCC4)ccc3N3CCC(O)C3)cc12 (stereo not shown) [Compound-110, N-(2-hydroxy-4-methyl-6-quinolyl)-2-(3-hydroxypyrrolidin-1-yl)-5-morpholino-sulfonyl-benzamide]"
17,> 6.70,"Cc1cc2nc(O)cc(C)c2cc1NC(=O)c1cc(-c2cnn(C)c2)cnc1N1CCOCC1 [Compound-171, N-(2-hydroxy-4,7-dimethylquinolin-6-yl)-5-(1-methyl-1H-pyrazol-4-yl)-2-morpholinonicotinamide]"
18,> 6.70,"Cc1noc(C)c1-c1cnc(N2CCOCC2)c(C(=O)Nc2ccc3nc(O)cc(C)c3c2)c1 [Compound-177, 5-(3,5-dimethylisoxazol-4-yl)-N-(2-hydroxy-4-methylquinolin-6-yl)-2-morpholinonicotinamide]"
19,> 6.70,"CC(=O)c1cc(C(=O)Nc2ccc3nc(O)cc(C)c3c2)c(N2CCOCC2)cn1 [Compound-207, 2-acetyl-N-(2-hydroxy-4-methylquinolin-6-yl)-5-morpholinoisonicotinamide]"
